Results reported in US20030170826A1, “Peptides for facilitating composite receptor expression and translocation of macromolecules” (priority 2001, published 2003).
Ends that are not written are not given here. {propylamine} = propylamine end group; fluorescein = fluorescein label; fluor = fluorescein label

Legend:
SupFG1 gene = assay: Chromosomal mutations induced in the SupFG1 gene by triplex forming oligonucleotides; type: cell-based; conditions: murine cell line with SupFG1 gene in the genome; mutations/total plaques
Procedure: The ability of TAK16 to facilitate translocation of oligonucleotides designed to form triplex DNA complexes with the SupFG1 sequence was tested in a murine cell line in which the SupFG1 gene is incorporated into the genome. The assay used measures chromosomal mutations induced in the SupFG1 gene by triplex forming oligonucleotides, as measured by mutations/total plaques. The ability of TAK16 to translocate triplex forming oligonucleotides was compared to that of Antennapedia (ANTP)-s-s-oligo complex and the lipid delivery system Gene Porter. The two oligonucleotides tested were AG13 (5′-AGGAA8-propylamine-3′; SEQ ID NO: 58) and AG30 (5′-AGGAAG8TGGTG5AG5AG-propylamine-3′; SEQ ID NO: 59). The groups tested were 1) control (no treatment); 2) AG13 alone; 3) AG13+Gene Porter; 4) AG13-s-s-ANTP; 5) AG13+TAK16; 6) AG30+Gene Porter; and 7) AG30+TAK16. […] It can be seen that the two highest mutation rates occurred in cells treated with AG13+TAK16 (group 5; 40×10^−5) and AG30+TAK16 (group 7; 36×10^−5).

SK-BR-3 cells [1] = conditions: 200 nM peptide, 15 minutes on ice
Procedure: FIG. 3, comprising FIG. 3A, FIG. 3B, and FIG. 3C, is a series of images of fluorescent micrographs illustrating the effects of a cell penetrating domain on the efficiency of composite receptors binding.
SK-BR-3 cells were collected and washed and resuspended in DPBS-BSA. Then, 5×10^4 cells were mixed with 200 nM CR1 or delta-CR1 in 40 μl DPBS-BSA and incubated 15 minutes on ice. The cell were then washed in DPBS-BSA, resuspended in 50 μl DPBS-BSA, washed, and applied to slides. Fluorescence was analyzed by fluorescence microscopy using a monochrome filter for FITC. […] FIG. 3C depicts cells incubated with […] CR1.

HeLa cells [2] = assay: Peptide mediated uptake of oligonucleotide FITC-O-24, FACS (FIG. 7); type: cell-based, human; conditions: peptide 0.0-150 μM, fifteen minutes at room temperature
Procedure: Flow cytometric analyses of cell subpopulations for these and other experiments described herein were performed using a FACS Vantage flow cytometer (Becton-Dickinson Immunocytometry Systems, San Jose, Calif.). The cells were excited at 488 nm. The FITC fluorescence was collected through a 530/30 nm band pass filter. A minimum of ten thousand cells was interrogated in each sample. Analysis of data was performed using CellQuest software (Becton-Dickinson).
To detect fluorescent labeled molecules associated with cells, the cells were first harvested in DPBS, incubated with a fluorescent labeled molecule of interest at varied concentrations (e.g., oligonucleotide at 50 μM mixed with 1×10^5 cells in 10 μl DPBS), incubated for 15 minutes at room temperature, diluted with 200 μl growth medium, and then analyzed by fluorescence activated cell sorting (FACS).
Next, various peptide sequences and domains were tested for their abilities to facilitate translocation of the oligonucleotide FITC-O-24 across a cell membrane. The peptides tested included: K16 (G4K16; SEQ ID NO: 47); TAT (G4YGRKKRRQR3; SEQ ID NO: 48); TAK8 (G4YGRKKRRQR3G4K8; SEQ ID NO: 49); TAK12 (G4YGRKKRRQR3G4K12; SEQ ID NO: 50) and TAK16/TatK16 (G4YGRKKRRQR3G4K16; SEQ ID NO: 36). HeLa cells (1×10^5) were incubated with the oligonucleotide (0.6 μl, 50 μM) in 10 μl DPBS and various concentrations of the peptides (i.e., 0.0, 1.5, 5.0, 15.0, 50.0, or 150 μM). The cells were incubated in the presence of the mixtures for fifteen minutes at room temperature and then analyzed by FACS.

SK-BR-3 cells [3] = conditions: 60 nM CR1 or CR1R, 30 minutes on ice, sodium azide
Procedure: This difference in membrane orientation can be detected using an anti-FITC antibody which cannot penetrate the cellular membrane and therefore can only bind to an FITC on the outer cell surface. For CR1, FITC is an intracellular domain. However, for CR1R, FITC is an extracellular domain. […] SK-BR-3 cells were collected and washed in DPBS with 0.5% BSA (DPBS-BSA), resuspended in DPBS-BSA with 10 mM Sodium Azide, incubated for 20 minutes at room temperature, transferred to ice. 5×10^4 cells were mixed with 60 nM CR1 or CR1R in 20 μl DPBS-BSA, incubated 30 min on ice, washed in DPBS-BSA -Azide, and then resuspended in 50 μl DPBS-BSA-Azide. Then, 50 μl of anti-antibody in DPBS-BSA-Azide (dilution 1:50) was added, the suspension incubated on ice for 30 minutes, and then the cells were washed and applied to slides. Alexa-Fluor 594 fluorescence was analyzed by microscope using monochrome filter for Cy3.5.
This difference in orientation can be detected using an anti-FITC antibody which cannot penetrate the cellular membrane and therefore can only bind FITC which is on the outside cell surface and not inside the cell. […] Alexa-Fluor 594 fluorescence was analyzed using a fluorescent microscope and a monochrome filter for Cy3.5.

SK-BR-3 cells [4] = assay: Localization of fluorescein labeled composite receptor peptides in cells, fluorescence microscopy (FIG. 1); type: cell-based, human; conditions: 800 nM Tat-K16, 800 nM CR1 or 400 nM CR2, 15 minutes
HeLa cells [5] = assay: Peptide-oligo mediated uptake of avidin-FITC (FIG. 12); type: cell-based, human
SK-BR-3 cells [6] = assay: Peptide facilitated translocation of Cy3-O18 oligonucleotide, fluorescence microscopy (FIG. 6); type: cell-based, human; conditions: for Cy3 label of the oligonucleotide in cells: mixture of Cy3-oligonucleotide and fluorescein labeled peptide
HeLa cells [7] = assay: TAK16 mediated uptake of Cy3 labeled 400 bp double stranded DNA and 5 kb plasmid DNA (FIG. 11); type: cell-based, human
Procedure: Next, it was decided to determine whether even larger nucleotides, including double stranded (DS) DNA or plasmid DNA, could be transported into a cell. Specifically, it was determined whether TAK16 could facilitate the transport of 400 base pair (bp) double stranded DNA and a 5 kb circular plasmid DNA (pECFP; enhanced cyano fluorescent protein) into cells. The DNAs were labeled with Cy3 reagent (“Label IT” Cy3 Nucleic Acid Labeling Kit; Mirus, Madison, Wis.), according to manufacturer's directions. This protocol usually yields one label per up to ten nucleotides. To this end, HeLa cells were prepared as above and then incubated with 400 ng of plasmid DNA or 60 ng of 400 bp DNA and with TAK16 (12 μM).

SK-BR-3 cells [8] = assay: Translocation of fluorescein labeled peptides containing a cell penetrating domain (FIG. 5); type: cell-based, human; conditions: 800 nM peptide, fifteen minutes at 37° C.
[9] = Intracellular transport of beta-galactosidase conjugated to an oligonucleotide; type: cell-based; conditions: similar experiments
HeLa cells [10] = assay: TAK16 mediated uptake of 83-mer oligonucleotide O-83-FITC, FACS and fluorescence microscopy (FIG. 9, 10); type: cell-based, human; conditions: TAK16 13.3 μM, O-83-FITC 0.00-1.8 μM
HeLa cells [11] = assay: TAK16 mediated uptake of FITC-O-24, fluorescence microscopy (FIG. 8); type: cell-based, human; conditions: TAK16 0.00, 0.36, 1.80 or 9.00 μM, FITC-O-24 2.5 μM
HeLa cells [12] = assay: Peptide-oligo mediated uptake of horseradish peroxidase-avidin (HPA), cytochemical analysis (FIG. 13); type: cell-based, human; conditions: TAK16 and Bio-O-22, 30 minutes at 37° C.
Procedure: To further determine the ability of a fusion peptide to facilitate transport of a molecule associated with a nucleic acid across a cell membrane, TAK16 was tested for its ability to mediate transport of another protein. In this example, the protein horseradish peroxidase (HRP) was tested. The HRP was conjugated to avidin to yield 120 kD Horseradish Peroxidase-Avidin (HPA). Cells were obtained as above. HPA and Bio-O-22 were added to cells in DPBS at final concentrations of 8 μM and 8 μM, respectively, and then incubated for 15 minutes at room temperature. Then, 2.5 μl of the mix was added to 2×10^5 HeLa cells in 10 μl DPBS. Next, 12.5 μl of 100 μM TAK16 in DPBS was added to the mixture and incubated for 30 minutes at 37° C. Then the cells were washed and applied to slides. Cells on the slides were treated with 30 μl peroxidase suppressor solution to suppress endogenous peroxidase, washed with DPBS, treated with 30 μl Metal Enhanced DAB Substrate Working Solution, incubated for 15 minutes at room temperature, and then subjected to microscopic analysis. […] HPA activity or presence was detected using the DAB kit and the manufacturer's protocol.

5′-AGGAA8-propylamine-3′ (AGGAAAAAAAAA; 3' {propylamine}, sugars by position and backbone not given here) [AG13]
chromosomal mutation frequency induced in the SupFG1 gene (SupFG1 gene): 8 ×10^−5

FITC-G3G3AAL3A19WK8-biotin [delta-CR1]
FITC fluorescence on the cell membrane (SK-BR-3 cells [1]): low level of fluorescence on the cell membrane

G4K16 (GGGGKKKKKKKKKKKKKKKK; FITC-0-24 oligonucleotide cell membrane translocation facilitating peptide) [reference compound]
facilitating transport of FITC-O-24 across the cell membrane (HeLa cells [2]): Neither TAT, nor adapter domain, K16, were able to efficiently facilitate transport

G4YGRKKRRQR3G4K8 (GGGGYGRKKRRQRRRGGGGKKKKKKKK; Human immunodeficiency virus type 1) [TAK8]
facilitating transport of FITC-O-24 across the cell membrane (HeLa cells [2]): decreased ability to facilitate transport

G4YGRKKRRQR3G4K12 (GGGGYGRKKRRQRRRGGGGKKKKKKKKKKKK; Human immunodeficiency virus type 1) [TAK12]
facilitating transport of FITC-O-24 across the cell membrane (HeLa cells [2]): decreased ability to facilitate transport

biotin-G3YGRKKRRQR3G3AAL3A19WK8-FITC [CR1R]
fluorescence of anti-fluorescein (anti-FITC) antibodies, Alexa-Fluor 594 (SK-BR-3 cells [3]): higher

fluor-G3YGRKKRRQR3G3AAL3A19WK8-biotin [CR1]
localization of fluorescein labeled peptide in the cell (SK-BR-3 cells [4]): localized at the periphery of the cells, in a speckled distribution | FITC fluorescence on the cell membrane (SK-BR-3 cells [1]): high levels of fluorescence occur on the cell membrane

fluor-G4YGRKKRRQR3G4K16 (fluorescein-GGGGYGRKKRRQRRRGGGGKKKKKKKKKKKKKKKK) [Tat-K16]
fluorescence of avidin-FITC in cells, with oligonucleotide Bio-O-22 (HeLa cells [5]; TAK16 + Bio-O-22 + avidin-FITC, 20 minutes at 37° C.): much higher levels of fluorescence | fluorescence of avidin-FITC in cells, no oligonucleotide (HeLa cells [5]; TAK16 and avidin-FITC, without Bio-O-22): did not exhibit appreciable levels of fluorescence | oligonucleotide Cy3-O18 translocation through the cell membrane (SK-BR-3 cells [6]; 500 nM oligonucleotide and 80 nM peptide, fifteen minutes at 37° C.): facilitated | Cy3 label of the oligonucleotide in cells (SK-BR-3 cells [6]): located in the cytoplasm as well as in the nucleus | cells with uptake of large double stranded DNA molecules, linear and circular (HeLa cells [7]; TAK16 12 μM): ~100% | uptake of Cy3 labeled 400 bp DS DNA or plasmid DNA (fluorescence) (HeLa cells [7]; […], TAK16 12 μM or no peptide): obvious fluorescence | entry of peptide into the cell and localization (SK-BR-3 cells [8]): entered the cell and were located in both the cytoplasm and the nucleus | intracellular transport of a 140 kD protein (beta-galactosidase) conjugated to an oligonucleotide [9]: able to facilitate intracellular transport | cell associated fluorescent intensity of O-83-FITC (FACS) (HeLa cells [10]; FACS): increased with increasing amounts of the 83-mer | cellular associated fluorescence of O-83-FITC (microscopy) (HeLa cells [10]; fluorescent microscopic analysis): increased cellular associated fluorescence | localization of fluorescein labeled peptide in the cell (SK-BR-3 cells [4]): located throughout the cell | fluorescent intensity associated with FITC-O-24 (HeLa cells [11]): increased in the cells incubated with increased amounts of TAK16 peptide | facilitating transport of FITC-O-24 across the cell membrane (HeLa cells [2]): most efficient | HPA uptake, with oligonucleotide Bio-O-22 (HeLa cells [12]): facilitated

fluor-G4YGRKKRRQR (fluorescein-GGGGYGRKKRRQR) [Tat, reference compound]
Cy3 label of the oligonucleotide in cells (SK-BR-3 cells [6]): not detected

B1: fluor-G4YGRKKRRQR3G3MPNLWFL2FLGLVA2MQL5FL3F2LVYW DHFECSCTGLPF (peptide)
chain: fluor-GGGGYGRKKRRQRRRGGGMPNLWFLLFLGLVAAMQLLLLLFLLLFFLVYWDHFECSCTGLPF
localization of fluorescein labeled peptide in the cell (SK-BR-3 cells [4]): localized in a few foci at the cell surface
